For the experiment, the target named is MCH receptor (Homo sapiens, UniProt Q99705). The experiment in a line: High throughput functional screening FLIPR/FDSS6000 (intracellular Ca2+ evoked by MCH). Format: cell-based. Particulars: FLIPR/FDSS, antagonist activity vs 50 nM MCH; class by percent of control at 10^−7 M or IC50; read-out: class. An outline of the steps:
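For antagonist testing, compound-treated cells (30 min, 37 °C) were stimulated with 50 nM MCH and intracellular Ca2+ followed by Fluo4 fluorescence on FLIPR/FDSS6000. Receptor was a constitutively active, non-endogenous MCH receptor; dye loading 4 μM Fluo4-AM, 1 h, 37 °C.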

A value given as a limit tells only on which side of the number the result lay.

Take `Cc1cc(N[C@H]2CC[C@@H](C(=O)N[C@@H](C)c3ccc(Cl)cc3)CC2)nc2ccccc12` [Example 3306, cis-N-[(1S)-1-(4-chlorophenyl)ethyl]-4-[(4-methylquinolin-2-yl)amino]cyclohexanecarboxamide]: the IC50 was in the range of 50 to 200 nM.

Turning to `Cc1cc(N[C@H]2CC[C@@H](C(=O)N[C@H](C)c3cccc(C(F)(F)F)c3)CC2)nc2ccccc12` [Example 3307, cis-4-[(4-methylquinolin-2-yl)amino]-N-{(1R)-1-[3-(trifluoromethyl)phenyl]ethyl}cyclohexanecarboxamide], the IC50 is less than 50 nM.

In the case of `Cc1cnc(N[C@H]2CC[C@@H](C(=O)N[C@@H](C)c3ccc(Br)cc3)CC2)nc1N(C)C` [Example 3308, cis-N-[(1S)-1-(4-bromophenyl)ethyl]-4-{[4-(dimethylamino)-5-methylpyrimidin-2-yl]amino}cyclohexanecarboxamide], the IC50 is less than 50 nM.

In the case of `Cc1cc(N[C@H]2CC[C@@H](C(=O)N[C@@H](C)c3cc(C(F)(F)F)cc(C(F)(F)F)c3)CC2)nc2ccccc12` [Example 3309, cis-N-{(1S)-1-[3,5-bis(trifluoromethyl)phenyl]ethyl}-4-[(4-methylquinolin-2-yl)amino]cyclohexanecarboxamide], the IC50 fell in the range of 50 to 200 nM.

Consider `Cc1cc(N[C@H]2CC[C@@H](C(=O)N[C@H](C)c3ccc(OC(F)(F)F)cc3)CC2)nc2ccccc12` [Example 3310, cis-4-[(4-methylquinolin-2-yl)amino]-N-{(1R)-1-[4-(trifluoromethoxy)phenyl]ethyl}cyclohexanecarboxamide], for which the IC50 is more than 200 nM.

Take `Cc1cc(N[C@H]2CC[C@@H](C(=O)N[C@H](C)c3ccccc3F)CC2)nc2ccccc12` [Example 3311, cis-N-[(1R)-1-(2-fluorophenyl)ethyl]-4-[(4-methylquinolin-2-yl)amino]cyclohexanecarboxamide]: the IC50 is more than 200 nM.

`Cc1cc(N[C@H]2CC[C@@H](C(=O)N[C@@H](C)c3ccccc3F)CC2)nc2ccccc12` [Example 3312, cis-N-[(1S)-1-(2-fluorophenyl)ethyl]-4-[(4-methylquinolin-2-yl)amino]cyclohexanecarboxamide]: the IC50 was less than 50 nM.

For the compound `Cc1cc(N[C@H]2CC[C@@H](C(=O)N[C@H](C)c3ccccc3C(F)(F)F)CC2)nc2ccccc12` [Example 3313, cis-4-[(4-methylquinolin-2-yl)amino]-N-{(1R)-1-[2-(trifluoromethyl)phenyl]ethyl}cyclohexanecarboxamide], the IC50 fell in the range of 50 to 200 nM.

Take `Cc1cc(N[C@H]2CC[C@@H](C(=O)N[C@@H](C)c3ccccc3C(F)(F)F)CC2)nc2ccccc12` [Example 3314, cis-4-[(4-methylquinolin-2-yl)amino]-N-{(1S)-1-[2-(trifluoromethyl)phenyl]ethyl}cyclohexanecarboxamide]: the IC50 was less than 50 nM.

Turning to `Cc1cc(N[C@H]2CC[C@@H](C(=O)N[C@@H](C)c3cccc(C(F)(F)F)c3)CC2)nc2ccccc12` [Example 3315, cis-4-[(4-methylquinolin-2-yl)amino]-N-{(1S)-1-[3-(trifluoromethyl)phenyl]ethyl}cyclohexanecarboxamide], the IC50 was less than 50 nM.

In the case of `COc1ccccc1NC(=O)N[C@H]1CC[C@@H](Nc2ncc(C)c(N(C)C)n2)CC1` [Example 3321, N-(cis-4-{[4-(dimethylamino)-5-methylpyrimidin-2-yl]amino}cyclohexyl)-N′-(2-methoxyphenyl)urea], the IC50 was in the range of 50 to 200 nM.

On to `COc1cccc(NC(=O)N[C@H]2CC[C@@H](Nc3ncc(C)c(N(C)C)n3)CC2)c1` [Example 3322, N-(cis-4-{[4-(dimethylamino)-5-methylpyrimidin-2-yl]amino}cyclohexyl)-N′-(3-methoxyphenyl)urea], for which the IC50 was more than 200 nM.

`COc1ccc(NC(=O)N[C@H]2CC[C@@H](Nc3ncc(C)c(N(C)C)n3)CC2)cc1OC` [Example 3323, N-(3,4-dimethoxyphenyl)-N′-(cis-4-{[4-(dimethylamino)-5-methylpyrimidin-2-yl]amino}cyclohexyl)urea]: the IC50 was less than 50 nM.

For `Cc1cnc(N[C@H]2CC[C@@H](NC(=O)Nc3ccccc3F)CC2)nc1N(C)C` [Example 3324, N-(cis-4-{[4-(dimethylamino)-5-methylpyrimidin-2-yl]amino}cyclohexyl)-N′-(2-fluorophenyl)urea], the IC50 was in the range of 50 to 200 nM.

As to `Cc1cnc(N[C@H]2CC[C@@H](NC(=O)Nc3cccc(F)c3)CC2)nc1N(C)C` [Example 3325, N-(cis-4-{[4-(dimethylamino)-5-methylpyrimidin-2-yl]amino}cyclohexyl)-N′-(3-fluorophenyl)urea], the IC50 fell in the range of 50 to 200 nM.

`Cc1cnc(N[C@H]2CC[C@@H](NC(=O)Nc3ccc(F)cc3)CC2)nc1N(C)C` [Example 3326, N-(cis-4-{[4-(dimethylamino)-5-methylpyrimidin-2-yl]amino}cyclohexyl)-N′-(4-fluorophenyl)urea]: the IC50 was less than 50 nM.

For `Cc1cnc(N[C@H]2CC[C@@H](NC(=O)Nc3ccc(F)c(F)c3)CC2)nc1N(C)C` [Example 3327, N-(3,4-difluorophenyl)-N′-(cis-4-{[4-(dimethylamino)-5-methylpyrimidin-2-yl]amino}cyclohexyl)urea], the IC50 lay in the range of 50 to 200 nM.

Turning to `Cc1cnc(N[C@H]2CC[C@@H](NC(=O)Nc3ccccc3OC(F)(F)F)CC2)nc1N(C)C` [Example 3330, N-(cis-4-{[4-(dimethylamino)-5-methylpyrimidin-2-yl]amino}cyclohexyl)-N′-[2-(trifluoromethoxy)phenyl]urea], the IC50 is less than 50 nM.

Turning to `Cc1cnc(N[C@H]2CC[C@@H](NC(=O)Nc3ccc(F)c(Cl)c3)CC2)nc1N(C)C` [Example 3331, N-(3-chloro-4-fluorophenyl)-N′-(cis-4-{[4-(dimethylamino)-5-methylpyrimidin-2-yl]amino}cyclohexyl)urea], the IC50 fell in the range of 50 to 200 nM.

Consider `Cc1cnc(N[C@H]2CC[C@@H](NC(=O)Nc3ccc(Cl)cc3)CC2)nc1N(C)C` [Example 3333, N-(4-chlorophenyl)-N′-(cis-4-{[4-(dimethylamino)-5-methylpyrimidin-2-yl]amino}cyclohexyl)urea], for which the IC50 was 50 to 200 nM.

For `Cc1cnc(N[C@H]2CC[C@@H](NC(=O)Nc3cc(C(F)(F)F)cc(C(F)(F)F)c3)CC2)nc1N(C)C` [Example 3334, N-[3,5-bis(trifluoromethyl)phenyl]-N′-(cis-4-{[4-(dimethylamino)-5-methylpyrimidin-2-yl]amino}cyclohexyl)urea], the IC50 lay in the range of 50 to 200 nM.

With `Cc1cnc(N[C@H]2CC[C@@H](NC(=O)Nc3ccc(Br)cc3)CC2)nc1N(C)C` [Example 3335, N-(4-bromophenyl)-N′-(cis-4-{[4-(dimethylamino)-5-methylpyrimidin-2-yl]amino}cyclohexyl)urea], the IC50 was less than 50 nM.

`Cc1ccccc1NC(=O)N[C@H]1CC[C@@H](Nc2ncc(C)c(N(C)C)n2)CC1` [Example 3336, N-(cis-4-{[4-(dimethylamino)-5-methylpyrimidin-2-yl]amino}cyclohexyl)-N′-(2-methylphenyl)urea]: the IC50 was in the range of 50 to 200 nM.

Turning to `Cc1cnc(N[C@H]2CC[C@@H](NC(=O)Nc3ccc(Cl)c(Cl)c3)CC2)nc1N(C)C` [Example 3337, N-(3,4-dichlorophenyl)-N′-(cis-4-{[4-(dimethylamino)-5-methylpyrimidin-2-yl]amino}cyclohexyl)urea], the IC50 is 50 to 200 nM.

Take `Cc1cnc(N[C@H]2CC[C@@H](NC(=O)Nc3ccc(Cl)cc3Cl)CC2)nc1N(C)C` [Example 3338, N-(2,4-dichlorophenyl)-N′-(cis-4-{[4-(dimethylamino)-5-methylpyrimidin-2-yl]amino}cyclohexyl)urea]: the IC50 lay in the range of 50 to 200 nM.

For `Cc1cnc(N[C@H]2CC[C@@H](NC(=O)Nc3cc(Cl)cc(Cl)c3)CC2)nc1N(C)C` [Example 3339, N-(3,5-dichlorophenyl)-N′-(cis-4-{[4-(dimethylamino)-5-methylpyrimidin-2-yl]amino}cyclohexyl)urea], the IC50 lay in the range of 50 to 200 nM.

Take `Cc1cnc(N[C@H]2CC[C@@H](NC(=O)NCc3ccccc3)CC2)nc1N(C)C` [Example 3341, N-benzyl-N′-(cis-4-{[4-(dimethylamino)-5-methylpyrimidin-2-yl]amino}cyclohexyl)urea]: the IC50 lay within 50 to 200 nM.

For the compound `Cc1cnc(N[C@H]2CC[C@@H](NC(=O)Nc3cc(Cl)ccc3Cl)CC2)nc1N(C)C` [Example 3342, N-(2,5-dichlorophenyl)-N′-(cis-4-{[4-(dimethylamino)-5-methylpyrimidin-2-yl]amino}cyclohexyl)urea], the IC50 was in the range of 50 to 200 nM.

On to `Cc1cnc(N[C@H]2CC[C@@H](NC(=O)Nc3cccc(Cl)c3Cl)CC2)nc1N(C)C` [Example 3343, N-(2,3-dichlorophenyl)-N′-(cis-4-{[4-(dimethylamino)-5-methylpyrimidin-2-yl]amino}cyclohexyl)urea], for which the IC50 is more than 200 nM.

Take `Cc1cnc(N[C@H]2CC[C@@H](NC(=O)Nc3c(Cl)cccc3C(F)(F)F)CC2)nc1N(C)C` [Example 3344, N-[2-chloro-6-(trifluoromethyl)phenyl]-N′-(cis-4-{[4-(dimethylamino)-5-methylpyrimidin-2-yl]amino}cyclohexyl)urea]: the IC50 is more than 200 nM.

As for `Cc1cnc(N[C@H]2CC[C@@H](NC(=O)Nc3c(Cl)cc(Cl)cc3Cl)CC2)nc1N(C)C` [Example 3345, N-(cis-4-{[4-(dimethylamino)-5-methylpyrimidin-2-yl]amino}cyclohexyl)-N′-(2,4,6-trichlorophenyl)urea], the IC50 was less than 50 nM.

Regarding `Cc1cnc(N[C@H]2CC[C@@H](NC(=O)N(C)c3ccccc3F)CC2)nc1N(C)C` [Example 3346, N′-(cis-4-{[4-(dimethylamino)-5-methylpyrimidin-2-yl]amino}cyclohexyl)-N-(2-fluorophenyl)-N-methylurea], the IC50 is more than 200 nM.

Turning to `Cc1cnc(N[C@H]2CC[C@@H](NC(=O)N(C)c3ccccc3Cl)CC2)nc1N(C)C` [Example 3347, N-(2-chlorophenyl)-N′-(cis-4-{[4-(dimethylamino)-5-methylpyrimidin-2-yl]amino}cyclohexyl)-N-methylurea], the IC50 lay in the range of 50 to 200 nM.

(Values after patent publication US20050197350A1, “Novel quinoline, tetrahydroquinazoline, and pyrimidine derivatives and methods of treatment related to the use thereof” (TAISHO PHARMACEUTICAL CO., LTD., priority 2003, published 2005).)
